Results from EP4583874B1, “MULTITARGET NUCLEAR RECEPTOR LIGANDS BASED ON 2-(4-(QUINOLIN-2-YLOXY)PHENOXY)PROPANOIC ACID AND 2-(4-(QUINOXALIN-2-YLOXY)PHENOXY)PROPANOIC ACID FOR THE TREATMENT OF METABOLIC AND LIVER DISEASES” (CHARLES UNIVERSITY, FACULTY OF PHARMACY IN HRADEC KRALOVE, priority 2022, dated 2024).

Assays:
human LXRα = target: T1, human LXRα (Homo sapiens, UniProt Q13133); experiment: LXRα luciferase reporter gene assay, inhibition of activation by GW3965 (pGAL4-LXRα / pGL5-UAS 9x) in HepG2 cells; format: cell-based; details: HepG2, 24 h; read-out: LXRα antagonism
T1 construct: DNA constructs encoding human LBD domains of human PPARα, PPARγ, of LXRα (pGAL4-PPARα, pGAL4-PPARγ, pGAL4-LXRα); expressed in transfected cells; host or cells: HepG2
T1 sequence (Q13133 209-447 limits assumed): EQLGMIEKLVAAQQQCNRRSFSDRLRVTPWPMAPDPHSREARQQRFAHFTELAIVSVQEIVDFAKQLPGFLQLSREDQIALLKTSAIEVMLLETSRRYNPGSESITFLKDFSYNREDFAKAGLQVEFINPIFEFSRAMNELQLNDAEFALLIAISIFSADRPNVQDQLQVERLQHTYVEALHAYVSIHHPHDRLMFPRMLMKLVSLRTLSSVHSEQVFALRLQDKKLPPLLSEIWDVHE
Experimental: Bezafibrate, GW7647 and WY14643 are known PPARα ligands. […] GW3965 is known high-affinity LXRα ligand.
Inverse agonistic/antagonistic activities of tested compounds to LXRα receptor activated by the LXRα agonist GW3965(10 µM). […] Negative value indicates inverse agonism.
(§1) In HepG2 cells, luciferase gene reporter assays have been performed with the transiently transfected reporter gene luciferase construct with the UAS yeast binding site interacting with GAL4 protein (pGL5-UAS 9x, Promega). DNA constructs encoding human LBD domains of human PPARα, PPARγ, of LXRα (pGAL4-PPARα, pGAL4-PPARγ, pGAL4-LXRα) have been cotransfected with the reporter construct. For FXR, FXRE-luc construct with FXR response elements upstream of Firefly luciferase has been used together with an expression construct for human FXR for HepG2 cells transfection. HepG2 cells were then treated with compounds of the invention for 24 h.

C57BL/6J mice = experiment: Pilot study in mice, liver mRNA expression by RT-qPCR; format: in vivo; details: 3x 30 mg/kg p.o. gavage, liver 24 h after last application, vs vehicle
Experimental: Compounds 35 and 37 have been applied three times after 24 h (3x 30 mg/kg) via p.o. gavage to wild-type C57BL/6J mice. After 24 h from the last application, mice were sacrificed, and live samples collected on dry ice for total RNA isolation. RT-qPCR experiments have been performed with TaqMan probes and expression has been quantified using a reference gene (beta-actin and Gapdh) and delta-delta method. Data represents fold up or downregulation in mRNA expression for tested genes related to the expression in vehicle-treated control animals. * - statistically significant (p<0.05) up- or down- regulation in animals treated with tested compounds (n=4).
In the pilot study, compounds of the invention 37 and 35 were applied by per os probe (gavage) to male mice of age 15 weeks (n=4 per group) three times (3 x 30 mg/kg b.w.) in 1%PEG300/methylcellulose solution (compounds of EXAMPLE 37or 35). Livers were sampled 24 hours after application into liquid nitrogen for total RNA insolation and for qRT-PCR analysis (Quantstudio 7 HT Fast Real-Time PCR System).
(§2) Expressions of NR target genes mRNAs in livers of mice or in 3D cultured (spheroids) primary human hepatocytes have been performed using TaqMan probes-based RT-qPCR after isolation of total RNA by Trizol® (ThermoFischer Scientific) reagent and reverse transcription synthesis of cDNA in Quant Studio cycler. Real-time qPCR TaqMan probes have been purchased prom ThermoFisher scientific (Cat. No. 4351372 and 433118). Delta-delta method and Gapdh or TATA-box binding protein (TBP) housekeeping genes were used for relative quantification. Data are expressed as fold up-/down-regulation compared to vehicle-treated samples/mice.

human PPARγ = target: T2, human PPARγ (Homo sapiens, UniProt P37231); experiment: PPARγ luciferase reporter gene assay (pGAL4-PPARγ / pGL5-UAS 9x) in HepG2 cells; format: cell-based; details: HepG2, 24 h
T2 construct: DNA constructs encoding human LBD domains of human PPARα, PPARγ, of LXRα (pGAL4-PPARα, pGAL4-PPARγ, pGAL4-LXRα); expressed in transfected cells; host or cells: HepG2
T2 sequence (P37231 238-503 limits assumed): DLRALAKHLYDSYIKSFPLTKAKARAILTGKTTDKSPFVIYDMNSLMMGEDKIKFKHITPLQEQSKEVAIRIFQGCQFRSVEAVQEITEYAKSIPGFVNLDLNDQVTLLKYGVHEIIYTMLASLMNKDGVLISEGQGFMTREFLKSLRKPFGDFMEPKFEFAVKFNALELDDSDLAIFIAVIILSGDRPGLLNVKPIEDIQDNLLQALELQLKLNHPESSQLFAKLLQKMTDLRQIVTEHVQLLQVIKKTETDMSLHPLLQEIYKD

human FXR = target: T3, human FXR (Homo sapiens, UniProt Q96RI1); experiment: FXR responsive luciferase reporter gene assay (FXRE-luc + human FXR expression construct) in HepG2 cells; format: cell-based; details: HepG2, 24 h
T3 construct: expressed in transfected cells; host or cells: HepG2
T3 sequence (Q96RI1 1-486): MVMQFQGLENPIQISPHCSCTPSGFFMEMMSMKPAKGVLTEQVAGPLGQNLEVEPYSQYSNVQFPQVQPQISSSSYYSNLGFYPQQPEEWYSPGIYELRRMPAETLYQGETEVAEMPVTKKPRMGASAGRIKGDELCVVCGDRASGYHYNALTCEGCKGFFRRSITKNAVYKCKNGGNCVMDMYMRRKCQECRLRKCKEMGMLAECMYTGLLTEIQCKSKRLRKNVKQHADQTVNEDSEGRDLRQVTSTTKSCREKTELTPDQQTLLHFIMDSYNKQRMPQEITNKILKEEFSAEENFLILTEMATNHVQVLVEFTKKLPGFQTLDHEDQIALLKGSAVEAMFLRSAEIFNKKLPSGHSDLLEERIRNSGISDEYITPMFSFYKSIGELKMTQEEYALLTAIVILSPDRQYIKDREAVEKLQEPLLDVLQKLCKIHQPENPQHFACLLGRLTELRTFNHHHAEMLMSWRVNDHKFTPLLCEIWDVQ
Source text: as §1

human PPARα = target: T4, human PPARα (Homo sapiens, UniProt Q07869); experiment: PPARα responsive luciferase reporter gene assay (pGAL4-PPARα / pGL5-UAS 9x) in HepG2 cells; format: cell-based; details: relative activation to fenofibrate 10 µM (100%), HepG2, 24 h, negative value indicates inverse agonism
T4 construct: DNA constructs encoding human LBD domains of human PPARα, PPARγ, of LXRα (pGAL4-PPARα, pGAL4-PPARγ, pGAL4-LXRα); expressed in transfected cells; host or cells: HepG2
T4 sequence (Q07869 239-466 limits assumed): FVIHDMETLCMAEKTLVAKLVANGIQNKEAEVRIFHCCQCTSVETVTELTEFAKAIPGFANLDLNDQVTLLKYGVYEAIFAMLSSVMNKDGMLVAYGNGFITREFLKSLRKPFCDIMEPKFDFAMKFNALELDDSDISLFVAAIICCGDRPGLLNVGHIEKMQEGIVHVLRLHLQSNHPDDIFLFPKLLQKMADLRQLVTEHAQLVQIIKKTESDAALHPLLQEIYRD
Source text: Bezafibrate, GW7647 and WY14643 are known PPARα ligands. […] GW3965 is known high-affinity LXRα ligand. […]
as §1

TGR5 = target: T5, TGR5 (Homo sapiens, UniProt Q8TDU6); experiment: TGR5 luciferase reporter assay; format: cell-based; details: relative activation to LCA 10 µM (100%), negative value indicates inverse agonism
T5 sequence (Q8TDU6 1-330): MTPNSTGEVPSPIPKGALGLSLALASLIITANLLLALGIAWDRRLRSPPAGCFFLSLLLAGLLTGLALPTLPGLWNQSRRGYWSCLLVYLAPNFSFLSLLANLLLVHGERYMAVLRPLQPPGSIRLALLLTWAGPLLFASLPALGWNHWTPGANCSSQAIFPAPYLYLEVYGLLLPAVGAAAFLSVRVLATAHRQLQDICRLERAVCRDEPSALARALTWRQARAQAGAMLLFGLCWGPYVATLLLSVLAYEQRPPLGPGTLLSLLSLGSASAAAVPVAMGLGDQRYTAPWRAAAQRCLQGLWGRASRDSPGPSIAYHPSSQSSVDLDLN

[1] = tested on: 3D primary human hepatocyte spheroids; experiment: Gene expression in 3D primary human hepatocyte spheroids by RT-qPCR; format: cell-based; details: 3D spheroids of primary human hepatocytes (JEL donor), 72 hours
Source text: After the interval, spheroid have been subjected to RNA isolation and RT-qPCR was used to analyse mRNA expression using specific TaqMan probes. Expression has been quantified using a reference gene (TBP) and delta-delta method. Data represents fold up or downregulation in mRNA expression for tested genes (column) related to the expression in vehicle-treated controls (equal to 1, white color).
Human hepatocellular carcinoma HepG2 cell line was purchased from the European Collection of Cell Cultures (ECACC, Salisbury, UK). Primary human hepatocytes (donor) have been purchased from BioIV, Royston, UK.
as §2

| inhibition at 10 µM (human LXRα) | Cyp7a1 expression in the mouse liver (C57BL/6J mice) | Emax at 10 µM (human PPARγ) | Emax at 10 µM (human FXR) | Emax at 10 µM (human PPARα) | Emax at 10 µM (TGR5) | SMILES | Fasn gene expression in the mouse liver (C57BL/6J mice) | Pck1 gene expression in the mouse liver (C57BL/6J mice) | cholesterol efflux transporters Abcg5/8 expression in the mouse liver (C57BL/6J mice) | key protein involved in fatty acid (beta) oxidation, mRNA expression in the mouse liver (C57BL/6J mice) | effect on some critical genes involved in fatty acid oxidation in comparison with fenofibrate [1] | genes involved in fatty acid catabolism ([1]; combined effect of obeticholic acid and TFCA) |
| --- | --- | --- | --- | --- | --- | --- | --- | --- | --- | --- | --- | --- |
| 63% | down-regulates | 4% | 4% | 117% | 5% | C[C@@H](Oc1ccc(Oc2ccc3ccc(Cl)cc3n2)cc1)C(=O)O [compound 35, (R)-2-(4-((7-Chloroquinolin-2-yl)oxy)phenoxy)propanoic acid] | down-regulate | down-regulate | down-regulates | up-regulate | augmented effect | suitable upregulation |
| 48% | – | 1% | 89% | 0% | 16% | C[C@@H](Oc1ccc(Oc2ccc3c(Br)cccc3n2)cc1)C(=O)O [compound 40, (R)-2-(4-((5-Bromoquinolin-2-yl)oxy)phenoxy)propanoic acid] | – | – | – | – | – | – |
